Experiments:
[1] = tested on: human T cells; test: Primary alloproliferative response of responder PBMCs to irradiated MHC-mismatched stimulator PBMCs ([3H]thymidine incorporation); format: cell-based
Description: In this system, we have used responses to first exposure as an indication of primary responses. When cells stimulated in this fashion are rested in culture and then restimulated with the same stimulator PBMCs, the 'recall' response measured are taken as an indication of immune memory. Proliferation is measured by the incorporation of radioactive tritiated thymidine in dividing cells. PBMCs from HLA-mismatched individuals were separated using density-gradient centrifugation on Ficoll-Paque (Pharmacia, Uppsala, Sweden). Stimulator PBMCs were used in titrated doses after g-irradiation (200 rads). For the primary proliferative alloresponses, stimulator in graded doses were used with 1-3×10^5 responders per well in 200 μl of RPMI-1640 (Life Technologies, Grand Island, N.Y.) fortified with L-glutamine (Life Technologies) and antibiotics, containing 10% heat-inactivated responder autologous serum. Cultures were incubated in a CO2 atmosphere for five days, pulsed with 0.5 uCi of (H^3)-thymidine (New England Nuclear, Boston, Mass.) for the last 8-12 hours of the assay and harvested onto glass fiber filters for counting cell-incorporated thymidine (Betaplate; Wallac, Finland). results are expressed as mean cpm±SE for triplicate cultures. Dibutyryl cyclic AMP (dbcAMP), pentoxifylline (POX), aphidicolin (all from Sigma Chemical Co., St Louis, Mo.) and recombinant IL-2 (Boehringer Manheim Corp., Manheim Germany) were added singly or together to the culture in various doses as indicated during priming and in primary alloresponse assays. […] Sigma Chemical Co.) at room temperature for 20 minutes, washed extensively and used. PBMCs from MHC-mismatched donors were used as responder-stimulator pairs. Stimulator cells were used after γ-irradiation (200 rad) at various concentrations, as shown. Proliferation assays were set up as parallel cultures and were pulsed and harvested as below on different days when necessary for the analyses of the kinetics of the response. Where appropriate, cyclosporin A (CsA, Sandoz, Milan, Italy), aphidicolin (Aph, Sigma Chemical Co., and/or pentoxifylline ([…], Sigma Chemical Co.) Were added at the concentrations indicated, or PFA-fixed PBMCs were used. The plated were pulsed with 0.5 to 1 μCi of (^3H)thymidine ([^3H]TdR. Amersham, Little Chalfont, U.K.) During the last 12 to 16 h of the assay (4 days for a recall assay and 6 days for a primary assay, unless indicated otherwise). [^3H] TdR incorporation was measured by harvesting the cultures on glass-fibers and counting in a scintillation counter (Betaplate: LKB-Pharmacia. Uppsala, […]). The results are expressed as mean cpm±SE of triplicate cultures.

[2] = tested on: human T cells; test: Secondary (recall) alloproliferative response of T cells primed in vitro; format: cell-based
Description: In this system, we have used responses to first exposure as an indication of primary responses. When cells stimulated in this fashion are rested in culture and then restimulated with the same stimulator PBMCs, the 'recall' response measured are taken as an indication of immune memory. Proliferation is measured by the incorporation of radioactive tritiated thymidine in dividing cells. For priming, responder and stimulator cells mixed in 2-5 ml cultures in a ratio of 1:1-3:1. After five days of incubation, the cells were harvested, counted and viable cells used as primed responders with g-irradiated allostimulators in secondary alloproliferation assays, which were pulsed with (H^3)-thymidine after four days for estimating cell proliferation. For flow cytometric analysis, cells were separated from debris by Ficoll-Paque gradient centrifugation before staining. […] Sigma Chemical Co.) at room temperature for 20 minutes, washed extensively and used. For priming in vitro, responder PBMCs were incubated for 72 or 144 h at a ratio of either 1:1 or 2:1 respectively, with stimulator PBMCs. Where appropriate, CsA. Aph. and/or […] were added at the concentrations indicated, of PFA-fixed PBMCs were used instead.

[3] = tested on: CD25+ CD4 T cells; test: Flow cytometry of CD25 and Fas (CD95) on primed cells; format: cell-based, human; details: aphidicolin 1 ug/ml present during two-day rest period
Description: For analysis of cell surface markers, primed cell populations separated on Ficoll-Paque gradients were used. […] Briefly, 1-3×10^5 cells per well were stained with primary antibodies at 4° C., followed by appropriately labeled secondary reagents if required. Samples were analyzed using a Bryte flow cytometer (bio-Rad, Hemel Hampstead, UK). Antibodies to the T cell markers CD3 (OKT3), CD4 (OKT4), and to the activation markers CD25 and Fas (CD95) were used for staining. To detect apoptosis using propidium iodide (PI, Sigma Chemical Co.), antibody-stained cells were fixed and permeabilized with 70% ethanol, washed, and PI […] added just before cytometric analysis. Data were analyzed using FlowJo software (Treestar, San Jose, Calif.).
The phenotype of CD4 T cells activated during priming in vitro was examined next using various markers associated with T cell activation. Antibodies against CD25 (IL-2Ra), CD26, CD45RO, CD69 and gp240 were used, but except for CD25, none of the other markers gave consistent and reliable results (data not shown). CD25 expression on CD4 T cells in the responder populations was examined in a two-color flow cytometric analysis at two separate time points,—at the end of six days of priming and after two further rest days in culture after washing and resuspension in resh medium without any stimuli. Most CD25-expressing cells in the primed cultures were CD4 T cells. […] The frequency of CD25 expression increased in the PBMC-primed responders (FIG. 17B) and this percentage was lower if POX (100 μg/ml) was present during priming (FIG. 17C). […] Similar data were observed if dbcAMP was present during priming (data not shown). It can be seen that the proportion of CD25* cells was reproducibly lower if POX was present during priming with allo-PBMCs. However, after 48 hours of rest in culture, the frequency of CD25* cells declined in the populations primed in the absence of POX, while it went up in the group primed under POX cover.

[4] = tested on: allo-specific precursor T cells; test: Limiting dilution analysis of clonal responder frequency and burst size; format: cell-based, human; details: drug present during priming (POX 100 ug/ml)
Text: Limiting dilution analyses were used to calculate the number of transplantation antigen-specific memory T cells in cultures primed in the presence or absence of POX. Multiple replicate wells of titrated numbers of primed responders were restimulated. the numbers of wells showing proliferative responses at each responder dose were used to calculate the frequency of responding memory t cells in the primed populations. estimates of the extent of proliferation in wells effectively containing single responder cells served as a measure of clonal burst size. […] To determine the frequence of all-specific precursor cells in the various responder populations, titrating numbers (from 10,000 to 200 per well) of variously primed cells were added to a constant number (1×10^5 per well) of g-irradiated stimulator PBMCs. Of the 48 wells plated per responder dose, those wells showing a response at least twice that of the background value were scored positive. The responder frequency was calculated by taking the number of negative wells into account. The response was considered clonal at the responder cell number where the proportion of positively responding wells was less than 37%. At responder cell concentrations showing clonal frequencies, the average cpm values of responding (versus non-responding) wells were used as an estimate of the average clonal burst size of single responding T cells.

C[C@@]1(CO)[C@H](O)CC[C@@]2(C)[C@H]1CC[C@H]1C[C@@H]3C[C@@]12CC[C@]3(O)CO [Aph, aphidicolin]
T cell proliferation in first response ([1]; 1 μg/ml Aph): inhibited substantially
T cell proliferation in first response ([1]; 3 μg/ml Aph): completely undetectable
kinetics of primary response ([1]; days 4-10, drugs present throughout): declines equivalently
primary response after drug removal ([1]; drugs removed on day 6, pulsed days 8 and 10): no increase
responses of unprimed PBMCs incubated with Aph ([2]; no stimulators): unaltered
recall response ([2]; primed with 1 μg/ml Aph vs primed in absence of Aph): comparable
recall response ([2]; primed with 3 μg/ml Aph): significant enhancement
increase in frequency of CD25+ cells in responders exposed to POX during priming [3]: does not abrogate

CCCC(=O)Nc1ncnc2c1ncn2[C@@H]1O[C@@H]2COP(=O)(O)O[C@H]2[C@H]1OC(=O)CCC [dbcAMP, Dibutyryl cyclic AMP]
primary proliferative response ([1]; 1 mM dbcAMP): inhibits
primary proliferative response ([1]; 10 mM dbcAMP): No effect
primary proliferative response ([1]; 100 mM dbcAMP): does inhibit
recall response ([2]; priming in presence of 10 mM dbcAMP): No effect
secondary response ([2]; priming in presence of 100 mM dbcAMP): significant enhancement
frequency of alloreactive responder (memory) T cells [4]: significantly enhances

paraformaldehyde [PFA]
primary alloproliferative response to PFA-fixed APCs ([1]; 0.0003% PFA): significant lowering
recall response capability induced by PFA-fixed APCs ([2]; 0.003% PFA, vs unfixed APCs): comparable with or greater than
recall response of cells primed with PFA-fixed APCs ([2]; 0.3% PFA, vs unprimed cells): distinctly lower
